Measurements taken from US20220324835A1 (Nurix Therapeutics, Inc., priority 2018, published 2022).
Read-outs that look alike come from different tables or passages of the source.

Tested on: primary human total T-cells
Assay: T-cell activation assessed by cell proliferation (Cell Trace Violet)
Assay type: cell-based
From the text: Peripheral blood mononuclear cells (PBMC) were obtained either: 1) by using Ficoll-Paque™ (GE Healthcare) for separation of peripheral blood hematopoietic cells from buffy coats of healthy human donors; or 2) directly from FeukoPak donations. Total human primary T-cells were isolated from the PMBCs utilizing negative selection with commercial kits following the manufacturer's protocol (Miltenyi Catalog #130-096-535 (i.e., cocktail of antibodies against surface markers CD14, CD15, CD16, CD19, CD34, CD36, CD56, CD123 and CD235a are incubated with the PBMCs before passing the samples by magnetic beads for removal of cells expressing those surface markers) or StemCells Catalog #17951) to yield >95% CD3+ cells as assessed by flow cytometry. For measurement of cell proliferation, cells were labeled with Cell Trace Violet (Invitrogen) following manufacturer's protocol prior to activation by stimulation with anti-CD3 antibody alone or in combination with anti-CD28 antibody. The Cbl-b inhibitor was added to 1×10^5 cells per well at multiple concentrations (e.g., 10 μM, 1.11 μM, or 0.123 μM) with a final DMSO concentration of <0.1%. The plate was incubated for one hour at 37° C. in 5% CO2. Following incubation with the Cbl-b inhibitor, primary human total T-cells were stimulated with either plate bound anti-CD3 antibody (OKT3) alone or plate bound anti-CD3 antibody (OKT3) with soluble anti-CD28 antibody (28.2) (Life Technologies). To prepare plates with plate bound anti-CD3 antibody (OKT3), 96-well round bottom tissue culture plates were coated with 100 μl of anti-CD3 antibody (OKT3) at 10 μg/mL for 4 hours at 37° C. 5% CO2 in phosphate buffered saline (PBS). The plates were washed with PBS prior to adding the cells with or without soluble anti-CD28 antibody (28.2) to each well at a final concentration of 5 μg/mL. Cells were stimulated for 48 hours prior to harvesting the cell free supernatant and staining the cell population for surface marker assessment by flow cytometry. Supernatants were analyzed for cytokine secretion (e.g., GM-CSF, IFNγ and TNFα) by ELISA (R&D Systems, Peprotech or Life Technologies) or Luminex multiplex kits (Procarta Life Technologies) following manufacturer's protocol. Cells were stained with anti-CD69 (BD Biosciences) to assess levels of surface markers of activation. Proliferation was measured by flow cytometry and data was analyzed with FlowJo v7.6.5 or v10. Readouts were reported as fold change over baseline. In some embodiments, baseline was the measurement obtained from total human T-cells stimulated with anti-CD3 antibody alone, wherein the cells were not incubated with a Cbl-b inhibitor. In some embodiments, baseline was the measurement obtained from total human T-cells stimulated with anti-CD3 antibody and anti-CD28 antibody, where the cells were not incubated with a Cbl-b inhibitor.
Cbl-b inhibitors were tested to determine their ability to induce or enhance secretion of cytokines from T-cells (e.g., GM-CSF, IFNγ and TNFα) and/or surface expression of cell surface markers on T-cells (e.g., CD69) that is indicative of T-cell activation. Cbl-b inhibitors were also tested to determine their ability to induce or enhance T-cell proliferation. Cbl-b inhibitors were tested for their effects on T-cell activation in the presence of costimulation and where conditions were suboptimal for priming.
Readouts for T-cell activation were reported as fold change over baseline. Baseline for this study was the measurement obtained from total human T-cells stimulated with anti-CD3 antibody alone or anti-CD3 antibody in combination with soluble anti-CD28 antibody, where the cells were not incubated with a Cbl-b inhibitor. For T-cells stimulated with anti-CD3/anti-CD28 or with anti-CD3 alone changes greater than 1,2-fold over baseline for % positive CD69 staining and greater than 2-fold over baseline for % total proliferating cells were considered a significant and positive response (Table 4a). […]

[1] = CD3/CD28 stimulation, CD4 T-cells, read-out: % CP (cell proliferation) (CD4)
[2] = CD3/CD28 stimulation, CD8 T-cells, read-out: % CP (cell proliferation) (CD8)
[3] = CD3 alone stimulation, CD8 T-cells, read-out: % CP (cell proliferation) (CD8)

SMILES | fold induction at 1.11 µM [1] | fold induction at 10 µM [1] | fold induction at 1.11 µM [2] | fold induction at 10 µM [2] | fold induction at 1.11 µM [3] | fold induction at 10 µM [3]
Cc1cc(C(=O)Nc2cccc([C@H](C)Cc3nncn3C)c2)nc(C2CC2)n1 [Compound 195, (R)-2-cyclopropyl-6-methyl-N-(3-(1-(4-methyl-4H-1,2,4-triazol-3-yl)propan-2-yl)phenyl)pyrimidine-4-carboxamide] | < 2 | > 4 | < 2 | > 4 | < 2 | > 4
C[C@H](c1cc2c(c(C(F)(F)F)c1)CN(c1cccc(C3(Cc4nncn4C)COC3)c1)C2=O)N1CC[C@H](F)C1 [Compound 413, 6-((R)-1-((S)-3-fluoropyrrolidin-1-yl)ethyl)-2-(3-(3-((4-methyl-4H-1,2,4-triazol-3-yl)methyl)oxetan-3-yl)phenyl)-4-(trifluoromethyl)isoindolin-1-one] | > 4 | > 4 | 3.01 to 4 | > 4 | 3.01 to 4 | > 4
Cc1cc(C(=O)Nc2cccc(C3(Cc4nncn4C)COC3)c2)nc(C2CC2)n1 [Compound 336, 2-cyclopropyl-6-methyl-N-(3-(3-((4-methyl-4H-1,2,4-triazol-3-yl)methyl)oxetan-3-yl)phenyl)pyrimidine-4-carboxamide] | > 4 | > 4 | 3.01 to 4 | > 4 | > 4 | > 4
COC1CN(Cc2cc3c(c(C(F)(F)F)c2)CN(c2cccc([C@@](C)(F)C(F)(F)c4nncn4C)c2)C3=O)C1 [Compound 452, (R)-6-((3-methoxyazetidin-1-yl)methyl)-2-(3-(1,1,2-trifluoro-1-(4-methyl-4H-1,2,4-triazol-3-yl)propan-2-yl)phenyl)-4-(trifluoromethyl)isoindolin-1-one] | > 4 | > 4 | 3.01 to 4 | > 4 | 3.01 to 4 | > 4
C[C@H](Cc1nncn1C)c1cccc(N2Cc3c(cccc3C(F)(F)F)C2=O)c1 [Compound 255a, (R)-2-(3-(1-(4-methyl-4H-1,2,4-triazol-3-yl)propan-2-yl)phenyl)-4-(trifluoromethyl)isoindolin-1-one] | < 2 | 3.01 to 4 | < 2 | 2.01 to 3 | < 2 | < 2
Cn1cnnc1C(F)(F)[C@](C)(F)c1cccc(N2Cc3c(cc(CN4CC[C@@H](F)C4)cc3C(F)(F)F)C2=O)c1 [Compound 450] | > 4 | > 4 | 2.01 to 3 | > 4 | > 4 | > 4
C[C@H](Cc1nncn1C)c1cccc(N2Cc3c(cc(CN4CC[C@](C)(O)C4)cc3C(F)(F)F)C2=O)c1 [Compound 398, 6-(((S)-3-hydroxy-3-methylpyrrolidin-1-yl)methyl)-2-(3-((R)-1-(4-methyl-4H-1,2,4-triazol-3-yl)propan-2-yl)phenyl)-4-(trifluoromethyl)isoindolin-1-one] | > 4 | > 4 | 3.01 to 4 | > 4 | > 4 | > 4
Cc1n[nH]c(C)c1-c1cc2c(c(C(F)(F)F)c1)CN(c1cccc(C3(Cc4nncn4C)COC3)c1)C2=O [Compound 385, 6-(3,5-dimethyl-1H-pyrazol-4-yl)-2-(3-{3-[(4-methyl-4H-1,2,4-triazol-3-yl)methyl]oxetan-3-yl}phenyl)-4-(trifluoromethyl)-2,3-dihydro-1H-isoindol-1-one] | > 4 | > 4 | 2.01 to 3 | 3.01 to 4 | 3.01 to 4 | > 4
